Results from patent US7582601B2, “Use of tryptophan rich peptides” (Campina B.V., priority 2003, dated 2009).

Tested on: cholecystokinin (CCK) level in plasma
Test: Plasma CCK levels in human volunteers after ingestion of test substance in orange juice (RIA)
Format: in vivo
Settings: healthy fasted human volunteers, n = 8
Method: The experiment described below was performed in a double-blind, four period, randomised, cross-over, placebo controlled study.
Eight healthy human volunteers were divided into four groups of two, and were refrained from any food overnight.
The experiment was repeated four times such, that all the eight volunteers eventually obtained aal the four test substances. During the four hours following the ingestion of the orange juice, blood was taken from the test persons at t=0, 30, 60 90, 120, 180 and 240 minutes after ingestion. CCK analysis was carried out using a radio-immunoassay (RIA) kit of Euro-Diagnostica (cat nr. #RB302) according to the instructions of the manufacturer.

N[C@@H](Cc1c[nH]c2ccccc12)C(=O)O [Tryptophan, tryptophan]
Mean CCK levels in plasma (0 minutes after ingestion, oral in 200 ml orange juice (25 g glucose), mean ± spread): 0.64 ± 0.78 pmol/L | Mean CCK levels in plasma (30 minutes after ingestion, oral in orange juice): 1.49 ± 1.04 pmol/L | Mean CCK levels in plasma (60 minutes after ingestion, oral in orange juice): 1.05 ± 1.06 pmol/L | Mean CCK levels in plasma (90 minutes after ingestion, oral in orange juice): 0.83 ± 0.84 pmol/L | Mean CCK levels in plasma (120 minutes after ingestion, oral in orange juice): 0.34 ± 0.11 pmol/L | Mean CCK levels in plasma (180 minutes after ingestion, oral in orange juice): 0.30 ± 0.00 pmol/L | Mean CCK levels in plasma (240 minutes after ingestion, oral in orange juice): 0.30 ± 0.00 pmol/L
